# Measurements reported in article PMC7177888, “Aryl-4,5-dihydro-1H-pyrazole-1-carboxamide Derivatives Bearing a Sulfonamide Moiety Show Single-digit Nanomolar-to-Subnanomolar Inhibition Constants against the Tumor-associated Human Carbonic Anhydrases IX and XII” (International Journal of Molecular Sciences, 2020).
# Like-named read-outs stand apart in the source and are kept apart here.
# Legend:
# Assay in all cases: stopped-flow CO2 hydrase assay
# Assay type in all cases: biochemical
# [1] = target: T1, CA II (Homo sapiens, UniProt P00918)
# T1 construct: gene CA2; recombinant, obtained in-house
# Outline: (§1)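 Using an Applied Photophysics stopped-flow instrument, CO2 hydration (1.7–17 mM CO2) by in-house recombinant human carbonic anhydrase isoforms was followed at 557 nm for 10–100 s in 20 mM Hepes (pH 7.5), 20 mM Na2SO4 and 0.2 mM phenol red, after a 15 min enzyme–inhibitor preincubation at room temperature. Ki was fitted by nonlinear least squares with the Cheng–Prusoff equation from initial rates corrected for the uncatalysed reaction. Reported values average at least three determinations.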
# [2] = target: T2, CA IX (Homo sapiens, UniProt Q16790)
# T2 construct: gene CA9; recombinant, obtained in-house
# Outline: as §1
# [3] = target: T3, CA XII (Homo sapiens, UniProt O43570)
# T3 construct: gene CA12; recombinant, obtained in-house
# Outline: as §1
# [4] = target: T4, CA VII (Homo sapiens, UniProt P43166)
# T4 construct: gene CA7; recombinant, obtained in-house
# Outline: as §1
# [5] = target: T5, CA I (Homo sapiens, UniProt P00915)
# T5 construct: gene CA1; recombinant, obtained in-house
# Outline: as §1
# T4 sequence (P43166 whole entry): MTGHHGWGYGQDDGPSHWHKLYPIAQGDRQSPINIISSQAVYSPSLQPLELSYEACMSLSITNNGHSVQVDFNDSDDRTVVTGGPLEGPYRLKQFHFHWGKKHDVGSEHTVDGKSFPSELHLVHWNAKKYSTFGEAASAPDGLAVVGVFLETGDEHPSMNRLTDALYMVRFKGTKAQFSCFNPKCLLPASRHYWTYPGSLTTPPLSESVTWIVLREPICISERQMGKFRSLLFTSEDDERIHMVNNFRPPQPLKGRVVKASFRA
# T3 sequence (O43570 25-354): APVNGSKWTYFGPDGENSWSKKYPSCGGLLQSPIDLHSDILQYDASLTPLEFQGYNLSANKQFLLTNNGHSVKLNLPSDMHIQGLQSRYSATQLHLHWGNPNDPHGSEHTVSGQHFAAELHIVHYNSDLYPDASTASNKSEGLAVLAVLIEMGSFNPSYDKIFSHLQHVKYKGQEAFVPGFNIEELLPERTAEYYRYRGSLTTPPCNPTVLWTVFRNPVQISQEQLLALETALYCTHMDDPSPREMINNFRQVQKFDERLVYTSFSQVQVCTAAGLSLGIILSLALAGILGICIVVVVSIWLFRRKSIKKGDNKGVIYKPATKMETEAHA
# T5 sequence (P00915 2-261): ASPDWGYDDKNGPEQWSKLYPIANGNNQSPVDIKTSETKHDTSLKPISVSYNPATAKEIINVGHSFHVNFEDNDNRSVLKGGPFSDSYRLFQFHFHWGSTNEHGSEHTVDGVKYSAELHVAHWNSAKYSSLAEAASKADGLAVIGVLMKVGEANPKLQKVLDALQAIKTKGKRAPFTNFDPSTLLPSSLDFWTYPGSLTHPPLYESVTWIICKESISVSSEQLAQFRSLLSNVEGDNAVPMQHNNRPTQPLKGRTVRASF
SMILES,Ki [1] [nM],Ki ([2]; read-out: KI (nM) / CA IX) [nM],Ki [3] [nM],Ki [4] [nM],Ki [5] [nM],Ki ([2]; read-out: KI (nM) / CA II) [nM]
"NS(=O)(=O)c1ccc(NC(=O)N2N=C(c3ccccc3)CC2c2ccc(Cl)cc2)cc1 (stereo not drawn) [compound 6, 5-(4-Chlorophenyl)-3-phenyl-4,5-dihydro-pyrazole-1-carboxylic acid (4-sulfamoyl-phenyl)-amide]",8.2,1.4,1.2,7.7,36.2,–
"NS(=O)(=O)c1ccc(NC(=O)N2N=C(c3ccccc3)CC2c2c(F)cccc2Cl)cc1 (stereo not drawn) [compound 8, 5-(2-Chloro-6-fluorophenyl)-3-phenyl-4,5-dihydro-pyrazole-1-carboxylic acid (4-sulfamoyl-phenyl)-amide]",5.2,1.5,1.4,2.4,38.3,–
"NS(=O)(=O)c1ccc(NC(=O)N2N=C(c3ccc(Cl)cc3)CC2c2ccccc2)cc1 (stereo not drawn) [compound 12, 3-(4-Chlorophenyl)-5-phenyl-N-(4-sulfamoylphenyl)-4,5-dihydro-1H-pyrazole-1-carboxamide]",233,16.5,9.2,350,239,–
"NS(=O)(=O)c1ccc(NC(=O)N2N=C(c3ccc(Cl)cc3)CC2c2ccc(Cl)cc2)cc1 (stereo not drawn) [compound 14, 3,5-Bis(4-chlorophenyl)-N-(4-sulfamoylphenyl)-4,5-dihydro-1H-pyrazole-1-carboxamide]",12.7,11.4,1.1,3.3,238,–
"NS(=O)(=O)c1ccc(NC(=O)N2N=C(c3ccc(Cl)cc3)CC2c2ccc(F)cc2)cc1 (stereo not drawn) [compound 15, 3-(4-Chlorophenyl)-5-(4-fluorophenyl)-N-(4-sulfamoylphenyl)-4,5-dihydro-1H-pyrazole-1-carboxamide]",71.3,2.7,1,3.2,617,–
"NS(=O)(=O)c1ccc(NC(=O)N2N=C(c3ccc(Cl)cc3)CC2c2ccccc2Cl)cc1 (stereo not drawn) [compound 16, 5-(2-Chlorophenyl)-3-(4-chlorophenyl)-N-(4-sulfamoylphenyl)-4,5-dihydro-1H-pyrazole-1-carboxamide]",8.8,–,1.7,4.3,297,8
"NS(=O)(=O)c1ccc(NC(=O)N2N=C(c3ccc(Cl)cc3)CC2c2cccs2)cc1 (stereo not drawn) [compound 18, 3-(4-Chlorophenyl)-N-(4-sulfamoylphenyl)-5-(thiophen-2-yl)-4,5-dihydro-1H-pyrazole-1-carboxamide]",9.2,2.5,0.62,2.9,726,–
"NS(=O)(=O)c1ccc(NC(=O)N2N=C(c3ccc(Cl)cc3)CC2c2c(F)cccc2Cl)cc1 (stereo not drawn) [compound 19, 5-(2-Chloro-6-fluorophenyl)-3-(4-chlorophenyl)-N-(4-sulfamoylphenyl)-4,5-dihydro-1H-pyrazole-1-carboxamide]",10.8,2.7,6.8,2.3,42.7,–
"NS(=O)(=O)c1ccc(NC(=O)N2N=C(c3ccc(Cl)cc3)CC2c2ccccc2O)cc1 (stereo not drawn) [compound 20, 3-(4-Chlorophenyl)-5-(2-hydroxyphenyl)-N-(4-sulfamoylphenyl)-4,5-dihydro-1H-pyrazole-1-carboxamide]",7.6,76.6,0.99,2.1,74.2,–
"COc1ccc(C2CC(c3ccc(Cl)cc3)=NN2C(=O)Nc2ccc(S(N)(=O)=O)cc2)cc1OC (stereo not drawn) [compound 22, 3-(4-Chlorophenyl)-5-(3,4-dimethoxyphenyl)-N-(4-sulfamoylphenyl)-4,5-dihydro-1H-pyrazole-1-carboxamide]",9.3,2.2,1.5,2.3,166,–
"NS(=O)(=O)c1ccc(NC(=O)N2N=C(c3ccc(Br)cc3)CC2c2ccc(F)cc2)cc1 (stereo not drawn) [compound 25, 3-(4-Bromophenyl)-5-(4-flurophenyl)-4,5-dihydro-pyrazole-1-carboxylic acid (4-sulfamoyl-phenyl)-amide]",5.5,1.4,2.4,2.6,38.2,–

# Further molecules by falling Ki [1], results first:
Ki [1] [nM],Ki ([2]; read-out: KI (nM) / CA IX) [nM],Ki [3] [nM],Ki [4] [nM],Ki [5] [nM],Ki ([2]; read-out: KI (nM) / CA II) [nM],SMILES
67.3,1.3,7.7,33.2,382,–,"NS(=O)(=O)c1ccc(NC(=O)N2N=C(c3ccccc3)CC2c2ccccc2)cc1 (stereo not drawn) [compound 5, 3,5-Diphenyl-4,5-dihydro-pyrazole-1-carboxylic acid (4-sulfamoyl-phenyl)-amide]"
58.2,1.5,6.3,2.3,252,–,"NS(=O)(=O)c1ccc(NC(=O)N2N=C(c3ccccc3)CC2c2ccc(F)cc2)cc1 (stereo not drawn) [compound 7, 5-(4-Flurophenyl)-3-phenyl-4,5-dihydro-pyrazole-1-carboxylic acid (4-sulfamoyl-phenyl)-amide]"
13.5,15,1.3,27.6,770,–,"NS(=O)(=O)c1ccc(NC(=O)N2N=C(c3ccc(Cl)cc3)CC2c2ccc(Cl)cc2Cl)cc1 (stereo not drawn) [compound 17, 3-(4-Chlorophenyl)-5-(2,4-dichlorophenyl)-N-(4-sulfamoylphenyl)-4,5-dihydro-1H-pyrazole-1-carboxamide]"
12.3,2.9,9.2,4.5,66.7,–,"Cc1ccc(C2CC(c3ccc(Cl)cc3)=NN2C(=O)Nc2ccc(S(N)(=O)=O)cc2)cc1 (stereo not drawn) [compound 13, 3-(4-Chlorophenyl)-N-(4-sulfamoylphenyl)-5-(p-tolyl)-4,5-dihydro-1H-pyrazole-1-carboxamide]"
10.7,14.3,0.89,2.7,45.5,–,"NS(=O)(=O)c1ccc(NC(=O)N2N=C(c3ccc(Br)cc3)CC2c2ccc(Cl)cc2)cc1 (stereo not drawn) [compound 24, 3-(4-Bromophenyl)-5-(4-chlorophenyl)-4,5-dihydro-pyrazole-1-carboxylic acid (4-sulfamoyl-phenyl)-amide]"
9.4,2.8,0.82,2.7,368,–,"COc1ccc(C2CC(c3ccc(Cl)cc3)=NN2C(=O)Nc2ccc(S(N)(=O)=O)cc2)cc1 (stereo not drawn) [compound 21, 3-(4-Chlorophenyl)-5-(4-methoxyphenyl)-N-(4-sulfamoylphenyl)-4,5-dihydro-1H-pyrazole-1-carboxamide]"
7.1,1.3,6.8,2.4,293,–,"NS(=O)(=O)c1ccc(NC(=O)N2N=C(c3ccccc3)CC2c2c3ccccc3cc3ccccc23)cc1 (stereo not drawn) [compound 10, 5-Anthracene-9-yl-3-phenyl-4,5-dihydro-pyrazole-1-carboxylic acid (4-sulfamoyl-phenyl)-amide]"
6.3,1.4,6.7,2.9,44.4,–,"NS(=O)(=O)c1ccc(NC(=O)N2N=C(c3ccc(Br)cc3)CC2c2ccccc2)cc1 (stereo not drawn) [compound 23, 3-(4-Bromophenyl)-5-phenyl-45-dihydro-pyrazole-1-carboxylic acid (4-sulfamoyl-phenyl)-amide]"
5.4,1.4,0.84,2.5,39.5,–,"NS(=O)(=O)c1ccc(NC(=O)N2N=C(c3ccccc3)CC2c2ccc(Cl)cc2Cl)cc1 (stereo not drawn) [compound 11, 5-(2,4-Dichlorophenyl)-3-phenyl-4,5-dihydro-pyrazole-1-carboxylic acid (4-sulfamoyl-phenyl)-amide]"
5.2,1.4,2.5,1.9,185,–,"NS(=O)(=O)c1ccc(NC(=O)N2N=C(c3ccccc3)CC2c2cccs2)cc1 (stereo not drawn) [compound 9, 3-Phenyl-5-thiophene-2-yl-4,5-dihydro-pyrazole-1-carboxylic acid (4-sulfamoyl-phenyl)-amide]"
